This note sets out measurements from patent US12128038B2, “Method of treatment of organic acidemias and other mitochondria defects or deficiencies” (University of Pittsburgh-Of the Commonwealth System of …, priority 2020, dated 2024).

What all share (format): cell-based, human
For assay [1], the system named is cells from patients with inborn errors of energy metabolism. Put plainly: Cellular bioenergetics and reactive oxygen on incubation with antioxidants.
In assay [2] the test system is PA (859) fibroblast cell line. Put plainly: Mitochondrial respiration (oxygen consumption rate), Seahorse XFe96 Extracellular Flux Analyzer. The following applies: PA cells, treatment for 24 h, Seahorse OCR. The method, then: (§1) Cells Culture and Treatments: Fibroblast from a healthy control (826) and a PA patient (859) were grown in DMEM with glucose supplemented with 10% FBS, and 4 mM glutamine. Control and PA cells were treated either with JP4-039, CLP, or DMSO (vehicle control) for 24 h and then harvested for analysis.
Measurement of Mitochondria Respiration: Oxygen consumption rate (OCR) was measured with a Seahorse XFe96 Extracellular Flux Analyzer, Seahorse Bioscience, Billerica, MA.
FIG. 3. Effect of JP4-039 and CLP on basal respiration of control (826) and PA (859) fibroblast cell line. Data shown here are means±SEM and are normalized to protein amount mean value. ****P<0.0001 and ***P<0.001 compared between the groups shown using unpaired t test for samples from a single biological replicate and 8 technical replicates.

Assay [3] relates to PA patient (859) fibroblasts. Kind of assay: Mitochondrial superoxide production by MitoSOX Red assay (flow cytometry). As to conditions: PA cells, treatment for 24 h. The method, then: as §1
Mitochondrial Superoxide production and Mitochondrial Mass: 150,000 Cells were incubated with MitoSOX Red (5 μM) and MitoTracker Green (150 nM) for 20 min at 37° C. and then analyzed by FACSAriall Flow cytometer.
FIG. 2. Superoxide levels detected by MitoSOX Red assay (A, B and C) and Mitochondrial mass detected by MitoTracker Green (D, E and F) in PA and healthy control cells with and without treatment for 24 h (A, B and C). Data shown here are means±SD and are normalized to WT mean value. ****P<0.0001, ***P<0.001, **P<0.01, *P<0.05 compared between the groups shown using unpaired t test for samples from a single biological replicate and minimum of at least three technical replicates.

On to `CC(C)C[C@@H](/C=C/[C@H](Cc1ccccc1)C(=O)N1CCC[C@H]1C(=O)N[C@H](C(=O)N[C@@H](CCCNC(=O)OCc1ccccc1)C(=O)NC1CC(C)(C)N([O])C(C)(C)C1)C(C)C)NC(=O)OC(C)(C)C` [XJB-5-131], for which, in assay [1], the cellular bioenergetics entry is given as “improve” and the reactive oxygen entry was “improve”.
Take `O=C(O)CC(O)(CC(=O)O)C(=O)O` [citrate]: the basal respiration entry in assay [2] is listed as “reduced”. For the same compound, in assay [3], the superoxide level entry is “reduced”.
Regarding `O=C(O)CCC(=O)O` [succinate], the basal respiration result in assay [2] is listed as “reduced”. The superoxide level entry in assay [3] is “reduced”.
